# According to publication PMC9866460, “Antifungal Combination Eye Drops for Fungal Keratitis Treatment” (Pharmaceutics, 2022):
# What was measured:
# [1] = Particle size of cyclodextrin/drug aggregates by TEM; format: physicochemical
# Experimental: Samples were placed on copper grids and stained with 2% (w/v) phosphotungstic acid. Samples were dried and evaluated by TEM observation using an accelerating voltage of 200 kV.
# Particle size was measured using Image-Pro Plus Image Analysis Software Version 6.0.0.260 (Media Cybernetics, Inc., Rockville, MD, USA).
# physchem = format: physicochemical
# Experimental: The solubility assay was based on the addition of an excess of the drug to different solutions with increasing concentrations of two different cyclodextrins, 2-hydroxypropyl-β-cyclodextrin (HPβCD) or 2-hydroxypropyl-ɣ-cyclodextrin (HPγCD). […] Afterwards, the resultant solutions were centrifugated (Eppendorf® Centrifuge 5804R) at 12,000 rpm for 30 min and 25 °C. […] Each measurement was performed in triplicate.
compound,measurement,setting,value
C[C@@H]1C/C=C/C=C/C=C/C=C/[C@H](O[C@@H]2O[C@H](C)[C@@H](O)[C@H](N)[C@@H]2O)C[C@@H]2O[C@](O)(C[C@@H](O)C[C@H]3O[C@@H]3/C=C/C(=O)O1)C[C@H](O)[C@H]2C(=O)O [Natamycin],average particle size (TEM),[1]; saturated solution of natamycin in 40% (w/v) HPβCD,80.25 ± 35.81 nm
same,average particle size (TEM),[1]; saturated solution of natamycin in 40% (w/v) HPβCD with 1% (w/v) voriconazole,148.96 ± 32.89 nm
same,solubility at 7 days,physchem,35.3 ± 14 µg/mL
